Results from publication PMC6264423, “Phytochemical and Cytotoxic Investigations of Curcuma mangga Rhizomes” (Molecules, 2011).
≈ marks a conversion by molar mass, not a printed value.

Tests used:
[1] = system: nasopharyngeal epidermoid cell line (KB); assay: in-vitro neutral red cytotoxicity assay, KB; assay type: cell-based; conditions: Homo sapiens, mean ± SD of three replicates
Experimental: (§1) In-vitro neutral red cytotoxicity assay: All cancer cell lines were purchased from the American Type Culture Collection (ATCC, USA), medium like RPMI 1640, McCOY’S 5A, Eagle Minimum Essential Medium (EMEM) from Sigma-Aldrich, USA. The supplements or antibiotics such as foetal bovine serum, penicillin/streptomycin (100 μg/mL), amphotericin B (50 μg/mL), tripsin-EDTA (100X) were purchased from PAA Lab, Austria as well as sodium pyruvate (11 mg/mL) from Sigma-Aldrich, USA. The cells were cultured in a Shel Lab water-jacketed CO2 incubator with 25 cm^3 tissue culture flasks (Nunc, Denmark), which was observed routinely under inverted microscope (Leica DMI3000 B, Germany) for any contamination and seeded into 96-well flat bottom microtiter plate (Nunc, Denmark). The extract or pure compounds were dissolved in dimethyl sulfoxide (DMSO, Molecular Biology Grade, >99.9%) from Sigma-Aldrich, USA. The 96-well microtiter plate was agitated rapidly on a microtiter plate incubator shaker (LT Biomax 500) and absorbance of eluted dye measured at 540 nm using a ELISA microplate reader (EMax microplate reader of Molecular Devices, USA). Cell lines such as MCF-7, A549, Ca Ski and HT-29 were maintained in RPMI 1640 medium, HCT 116 in McCOY’S 5A Medium, KB and MRC-5 cells in Eagle Minimum Essential Medium (EMEM). All of these media were supplemented with 10% foetal bovine serum (FBS), penicillin/streptomycin, amphotericin B and only additional sodium pyruvate in EMEM. The cells were cultured in tissue culture flask in 5% CO2 incubator kept at 37 °C in a humidified atmosphere and observed routinely under inverted microscope from any contaminations. Each fresh medium was replaced every 2 or 3 days until cell confluence was achieved and the cells were detached by using tripsin-EDTA.

[2] = system: cervical cell line (Ca Ski); assay: in-vitro neutral red cytotoxicity assay, Ca Ski; assay type: cell-based; conditions: Homo sapiens, mean ± SD of three replicates
Experimental: as §1

[3] = system: non-cancer human fibroblast cell line (MRC-5); assay: in-vitro neutral red cytotoxicity assay, MRC-5; conditions: MRC5, read-out: IC50 values, MRC-5
Experimental: as §1

[4] = system: colon cell line (HCT 116); assay: in-vitro neutral red cytotoxicity assay, HCT 116; assay type: cell-based; conditions: Homo sapiens, mean ± SD of three replicates
Experimental: as §1

[5] = system: lung cell line (A549); assay: in-vitro neutral red cytotoxicity assay, A549; assay type: cell-based; conditions: Homo sapiens, mean ± SD of three replicates
Experimental: as §1

[6] = system: hormone-dependent breast cell line (MCF-7); assay: in-vitro neutral red cytotoxicity assay, MCF-7; assay type: cell-based; conditions: Homo sapiens, MCF7, mean ± SD of three replicates
Experimental: as §1

[7] = system: colon cell line (HT-29); assay: in-vitro neutral red cytotoxicity assay, HT-29; assay type: cell-based; conditions: Homo sapiens, mean ± SD of three replicates
Experimental: as §1

[8] = system: non-cancer human fibroblast cell line (MRC-5)
Experimental: as §1

[9] = system: human cancer cell lines (MCF-7, KB, A549, Ca Ski, HCT 116, HT-29); assay: in-vitro neutral red cytotoxicity assay, panel of six cancer cell lines; assay type: cell-based
Experimental: In-vitro neutral red cytotoxicity assay: All cancer cell lines were purchased from the American Type Culture Collection (ATCC, USA), medium like RPMI 1640, McCOY’S 5A, Eagle Minimum Essential Medium (EMEM) from Sigma-Aldrich, USA. The supplements or antibiotics such as foetal bovine serum, penicillin/streptomycin (100 μg/mL), amphotericin B (50 μg/mL), tripsin-EDTA (100X) were purchased from PAA Lab, Austria as well as sodium pyruvate (11 mg/mL) from Sigma-Aldrich, USA. The cells were cultured in a Shel Lab water-jacketed CO2 incubator with 25 cm^3 tissue culture flasks (Nunc, Denmark), which was observed routinely under inverted microscope (Leica DMI3000 B, Germany) for any contamination and seeded into 96-well flat bottom microtiter plate (Nunc, Denmark). The extract or pure compounds were dissolved in dimethyl sulfoxide (DMSO, Molecular Biology Grade, >99.9%) from Sigma-Aldrich, USA. The 96-well microtiter plate was agitated rapidly on a microtiter plate incubator shaker (LT Biomax 500) and absorbance of eluted dye measured at 540 nm using a ELISA microplate reader (EMax microplate reader of Molecular Devices, USA). Cell lines such as MCF-7, A549, Ca Ski and HT-29 were maintained in RPMI 1640 medium, HCT 116 in McCOY’S 5A Medium, KB and MRC-5 cells in Eagle Minimum Essential Medium (EMEM). […]

| Compound | IC50 [1] [µg/mL] | IC50 [2] [µg/mL] | IC50 [3] [µg/mL] | IC50 [4] [µg/mL] | IC50 [5] [µg/mL] | IC50 [6] [µg/mL] | IC50 [7] [µg/mL] | effect on the normal human fibroblast cell line (in words) [8] | cytotoxic activity on the investigated human cancer cell lines (in words) ([9]; all investigated human cancer cell lines) | IC50 ([9]; Homo sapiens, span over the six cancer cell lines, read-out: IC50 values across all tested human cancer cell lines) [µg/mL] |
| --- | --- | --- | --- | --- | --- | --- | --- | --- | --- | --- |
| C=C1CC[C@H]2C(C)(C)CCC[C@]2(C)[C@H]1CC=C(C=O)CC(=O)O (stereo in doubt) [Compound 3, zerumin A] | 11.7 ± 1.15 (≈ 36.7 µM) | 14.2 ± 0.06 (≈ 44.6 µM) | 16.2 ± 0.25 (≈ 50.9 µM) | 9.3 ± 0.5 (≈ 29.2 µM) | 9.2 ± 0.62 (≈ 28.9 µM) | 8.7 ± 0.29 (≈ 27.3 µM) | 14.9 ± 0.4 (≈ 46.8 µM) | – | – | – |
| Ethyl acetate | – | – | – | – | – | – | – | caused no damage | – | – |
| C=C1CCC2C(C)(C)CCC[C@]2(C)C1/C=C/C(C)=O (stereo partly shown) [Compound 2, (E)-15,16-bisnorlabda-8(17),11-dien-13-one] | > 100 | > 100 | > 100 | > 100 | > 100 | > 100 | > 100 | – | no cytotoxic activity | – |
| COc1cccc2c1C(=O)c1c(O)c3c(c(O)c1C2=O)C[C@@](O)(C(=O)CO)C[C@@H]3O[C@H]1C[C@H](N)[C@H](O)[C@H](C)O1 [Doxo *, Doxorubicin, reference compound] | 0.27 ± 0.01 (≈ 0.497 µM) | 0.18 ± 0.06 (≈ 0.331 µM) | 0.4 ± 0.03 (≈ 0.736 µM) | 0.24 ± 0.04 (≈ 0.442 µM) | 0.58 ± 0.01 (≈ 1.07 µM) | 0.05 ± 0.01 (≈ 0.092 µM) | 0.33 ± 0.03 (≈ 0.607 µM) | – | – | 0.05 to 0.58 (≈ 0.092 to 1.07 µM) |
| C=C1CCC2C(C)(C)CCC[C@]2(C)C1C/C=C(/C=O)CC=O (stereo partly shown) [Compound 1, (E)-labda-8(17),12-dien-15,16-dial] | 14.5 ± 0.87 (≈ 47.9 µM) | 12.1 ± 0.35 (≈ 40 µM) | 8.9 ± 0.49 (≈ 29.4 µM) | 7.6 ± 0.23 (≈ 25.1 µM) | 19.9 ± 0.38 (≈ 65.8 µM) | 4.3 ± 1.3 (≈ 14.2 µM) | 6.3 ± 0.26 (≈ 20.8 µM) | – | – | – |
